Source: patent publication US9631001B2, “Peptide antagonists of the vasopressin-2 receptor” (COMMISSARIAT A L'ENERGIE ATOMIQUE ET AUX ENERGIES …, priority 2012, dated 2017)

Experiments:
[1] = target: vasopressin V2 receptor subtype (V2R) (Homo sapiens, UniProt P30518); assay: 3H-AVP competition binding on V2R membranes; conditions: affinity for the V2R, equilibrium binding, 3H-AVP (FIG. 2)
Description: Reaction mixtures contained 50 mM Tris-HCl, pH 7.4, 10 mM MgCl2 and 1 g/L BSA in a final volume of 100 μL. Plates were incubated for 3 h at room temperature. Binding reactions were stopped by filtration through a GF/C filter pre-soaked in 0.5% polyethyleneimine on a cell harvester ([sequence], Courtaboeuf, France) and plates were dried. […] A one-site inhibition mass action curve was fitted to inhibition binding data using Kaleidagraph (SYNERGY SOFTWARE, Reading, Pa., USA).

V1aR = V1aR (Homo sapiens, UniProt P37288); assay: 3H-AVP competition binding on V1aR membranes; conditions: toxin at 1 μM
Description: (§1) Membranes from cells expressing vasopressin receptors were purchased from […] (Courtaboeuf, France). Binding experiments were performed with ^3H-AVP ([…], Courtaboeuf, France) in 96-well plates. Reaction mixtures contained 50 mM Tris-HCl, pH 7.4, 10 mM MgCl2 and 1 g/L BSA in a final volume of 100 μL. Plates were incubated for 3 h at room temperature. Binding reactions were stopped by filtration through a GF/C filter pre-soaked in 0.5% polyethyleneimine on a cell harvester ([…], Courtaboeuf, France) and plates were dried. Ultimagold O (25 μl; […]) was added to each well and samples were counted using a TopCount counter ([…], Courtaboeuf, France) (Counting yield of 55%). […] A one-site inhibition mass action curve was fitted to inhibition binding data using Kaleidagraph (SYNERGY SOFTWARE, Reading, Pa., USA). IC50 values were converted to Ki for competition experiments using the Cheng-Prusoff equation (Cheng et al., Biochem. Pharmacol., 1973, 22, 3099-3108).

V1bR = target: T1, V1bR (Homo sapiens, UniProt P47901); assay: 3H-AVP competition binding on V1bR membranes; conditions: toxin at 1 μM
T1 sequence (P47901 1-424): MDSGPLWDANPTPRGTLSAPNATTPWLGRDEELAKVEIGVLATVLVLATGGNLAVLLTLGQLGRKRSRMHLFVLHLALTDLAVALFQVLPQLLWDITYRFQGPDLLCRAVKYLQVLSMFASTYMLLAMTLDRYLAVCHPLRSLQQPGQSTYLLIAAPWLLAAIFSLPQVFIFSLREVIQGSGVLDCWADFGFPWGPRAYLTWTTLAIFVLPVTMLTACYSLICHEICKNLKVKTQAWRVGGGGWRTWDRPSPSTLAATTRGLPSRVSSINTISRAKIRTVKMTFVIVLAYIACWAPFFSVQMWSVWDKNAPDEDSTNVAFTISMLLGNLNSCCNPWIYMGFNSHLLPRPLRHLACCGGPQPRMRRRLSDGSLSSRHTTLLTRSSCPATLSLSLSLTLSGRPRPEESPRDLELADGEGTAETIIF
Description: as §1

157 GPCRs = assay: FLIPR agonist/antagonist profiling on 157 GPCRs; type: cell-based; conditions: 1 μM U-Da2a
Description: Percentage activation and percentage inhibition values were determined on each GPCR. […] Percentage inhibition values were determined upon addition of a reference agonist at an estimated EC80 concentration. All wells were prepared using EMD Millipore's GPCRProfiler® Assay Buffer. The GPCRProfiler® Assay Buffer was a modified Hanks Balanced Salt Solution (HBSS) where HBSS was supplemented to contain 20 mM HEPES and 2.5 mM Probenecid at pH7.4. […] The agonist assay was a total of 180 seconds and was used to assess each compound's ability to activate each GPCR assayed. […] The antagonist assay was conducted using the same assay plate and the same apparatus that was used for the agonist assay. All assay plate data were subjected to appropriate baseline corrections. After baseline corrections were applied, maximum fluorescence values were exported and data processed to calculate percentage activation (relative to Emax reference agonist and vehicle control values), percentage inhibition (relative to EC80 and vehicle control values), and additional statistical values (i.e. Z′, percentage variation between replicate data values) to assess the quality of each plate. Where assay plate data were rejected, additional experiments were conducted.

hV2-Rluc receptor = target: T2, hV2-Rluc receptor (Homo sapiens, UniProt P30518); assay: β-arrestin-1-YFP mobilization (BRET) to V2-Rluc in tsA cells; type: cell-based
T2 construct: expressed in transfected cells; host or cells: tsA cells (HEK293 derivative), transiently transfected
Description: 2.5×10^6 tsA cells, a transformed human kidney (HEK293) cell line stably expressing an SV40 temperature sensitive T antigen (ECACC), transiently transfected with 150 ng of pRK5 expression plasmid for hV2Rluc ([sequence] #556104, BD BIOSCIENCE; Terrillon et al., Mol. Endocrinol., 2003, 17, 677-691) and with 1 μg of an expression plasmid for β-arrestin-1-YFP ((β-arrestin cloned into pEYFP-N1 (CLONTECH); Scott et al., J. Biol. Chem., 2002, 277, 3552-3559) were seeded in 6-well plates. 48 h after transfection, cells were washed with KREBS buffer containing 146 mM NaCl, 4.2 mM KCl, 0.5 mM MgCl2, 1 mM CaCl2, 10 mM HEPES pH 7.4, 1 mg/ml glucose and resuspended in 1 ml of this buffer. Bioluminescence Resonance Energy Transfer (BRET™) measurements between the V2-Rluc and β-arrestin-1-YFP were performed in 96-well plates with a final volume of 50 μl containing 30 μl of cell suspension (75,000 cells), 10 μl of KREBS buffer (control condition) or the mix of ligands containing either increasing concentrations of vasopressin (stimulated control condition) or in the presence of increasing concentrations of toxin (stimulated condition with inhibitor).

CD1^pcy/pcy mice [2] = assay: Diuretic and urine osmolarity effect, single and increasing doses; type: in vivo, mouse
Description: The toxin was dissolved in 0.9% NaCl at a concentration of 1 mg/ml. Adult CD1^pcy/pcy (Takahashi et al., J. Urol., 1986, 135, 1280-1283, and J. Am. Soc. Nephrol., 1991, 1, 980-989 and Olbrich et al., Nature Genetics, 2003, 34, 455-459) and adult C57BL/6 mice were injected intraperitoneally and subcutaneously with the toxin at doses of 1, 0.1 and 0.01 μmol toxin/kg of body weight. One, three and five days after the first injection the mice were kept for 24 hours in metabolic cages. The collected urine was centrifuged for 30 minutes at 14,000 rpm. Urine osmolality (mOs/kg) was determined with a Knauer osmometer, urine volume (μl) was measured with a pipette.

CD1^pcy/pcy mice [3] = assay: Long-term administration experiment (99 days); type: in vivo, mouse; conditions: 0.1 μmol/kg/day i.p.
Description: The toxin was dissolved in 0.9% NaCl at a concentration of 1 mg/ml and administered intraperitoneally to adult CD1^pcy/pcy mice at a dose of 0.1 μmol/kg/day. At 0, 30 70 and 99 days, urine was collected for 24 hours in metabolic cages and urine volume and urine osmolarity were determined.

CD1^pcy/pcy mice [4] = assay: Cyst formation in pcy mice (kidney weight, cyst number); type: in vivo, mouse; conditions: 0.1 μmol/kg/day i.p., 99 days
Description: The toxin was dissolved in 0.9% NaCl at a concentration of 1 mg/ml. 10 week-old CD1^pcy/pcy mice were injected intraperitoneally with the toxin at a dose of 0.1 μmol toxin/kg of body weightday for 99 days. Then the mice were perfusion-fixed with 4% paraformaldehyde/1× phosphate-buffered saline, the kidneys and hearts were taken out and weighed. Then, the ratio of kidney weight or heart weightbody weight and kidney weightheart weight was calculated to evaluate an effect of the toxin on cyst formation. The kidneys were embedded in paraffin. Transverse kidney sections were stained with hematoxylin and eosin. Cyst number was determined using the program ImageJ and related to the size of the section thus arriving at the relative cyst number.

V2R = V2R (Homo sapiens, UniProt P30518); assay: AVP-induced MAP kinase phosphorylation (HTRF) in tsA cells expressing V2R; type: cell-based; design: expressed in transfected cells
Description: Eight hours and twenty-four hours later, the cells were starved with serum-free medium and stimulated another twenty-seven hours later. […] In a 384 well plate, to 16 μl of lysed cells first 2 μl of the antibody against phosphorylated ERK labeled with acceptor fluorophore (AC-ERK-P-d2 emitting at 665 nm) and then 2 μl of the antibody against total ERK labeled with donor fluorophore (AC-ERK-K emiting at 620 nm) were added. When ERK phosphorylation occurs, the acceptor in close vicinity of the donor is able to emit at 665 nm producing the FRET signal. The increase in the 665/620 ratio corresponds to the increase in MAP kinase phosphorylation. Two hours later, RT-FRET was measured on a laser-based HTRF® reader Rubystar with Rubystar software (BMG LABTECH).

[5] = i.p. or s.c. injection at 1 μmol/kg, 24 h urine, vs basal state

T2 sequence (P30518 whole entry): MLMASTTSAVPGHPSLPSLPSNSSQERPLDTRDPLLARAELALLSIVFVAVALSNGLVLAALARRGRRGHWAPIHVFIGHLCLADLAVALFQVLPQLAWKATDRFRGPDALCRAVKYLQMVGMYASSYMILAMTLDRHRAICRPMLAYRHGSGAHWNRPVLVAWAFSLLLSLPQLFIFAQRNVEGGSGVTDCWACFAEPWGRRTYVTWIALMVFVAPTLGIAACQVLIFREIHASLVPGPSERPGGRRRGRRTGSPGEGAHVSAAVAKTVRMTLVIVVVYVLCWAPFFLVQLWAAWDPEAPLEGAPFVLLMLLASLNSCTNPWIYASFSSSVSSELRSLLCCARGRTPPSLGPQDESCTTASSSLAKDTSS
Chain of V2R (P30518 whole entry): as above
Chain of vasopressin V2 receptor subtype (V2R) (P30518 whole entry): as above
Chain of V1aR (P37288 whole entry): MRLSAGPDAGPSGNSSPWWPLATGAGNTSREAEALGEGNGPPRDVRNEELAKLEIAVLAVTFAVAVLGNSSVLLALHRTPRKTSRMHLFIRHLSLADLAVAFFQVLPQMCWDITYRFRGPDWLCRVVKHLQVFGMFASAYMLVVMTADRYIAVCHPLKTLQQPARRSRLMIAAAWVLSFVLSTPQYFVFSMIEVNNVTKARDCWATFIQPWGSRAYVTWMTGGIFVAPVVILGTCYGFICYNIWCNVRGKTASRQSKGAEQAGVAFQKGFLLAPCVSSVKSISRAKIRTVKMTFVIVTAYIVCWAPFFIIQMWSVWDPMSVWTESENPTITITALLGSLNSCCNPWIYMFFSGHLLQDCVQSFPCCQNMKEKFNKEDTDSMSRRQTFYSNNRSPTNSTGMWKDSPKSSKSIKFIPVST

Question: Which Ki [1] does the source give for CC[C@H](C)[C@@H]1NC(=O)[C@H]([C@@H](C)O)NC(=O)[C@H](CO)NC(=O)[C@H](Cc2ccccc2)NC(=O)[C@H](CCCNC(=N)N)NC(=O)[C@H](CC(N)=O)NC(=O)[C@H](C)NC(=O)[C@H](CC(N)=O)NC(=O)CNC(=O)[C@H](CCCCN)NC(=O)[C@@H]2CSSC[C@@H]3NC(=O)[C@@H]4CCCN4C(=O)CNC(=O)[C@@H]4CCCN4C(=O)[C@H](CCCCN)NC(=O)[C@H](C(C)C)NC(=O)[C@@H]4CCCN4C(=O)[C@H](CC(C)C)NC(=O)[C@H](CC(N)=O)NC(=O)[C@@H](NC(=O)[C@H](Cc4ccccc4)NC(=O)[C@H](CO)NC(=O)[C@@H]4CCCN4C(=O)[C@@H](N)CCCNC(=N)N)CSSC[C@@H](C(=O)N[C@H](C(=O)NCC(=O)O)C(C)C)NC(=O)[C@H]([C@@H](C)O)NC(=O)[C@H](CCCNC(=N)N)NC(=O)[C@H](CCCNC(=N)N)NC(=O)[C@H](CSSC[C@H](NC(=O)[C@H](CCCCN)NC(=O)[C@H](CC(N)=O)NC(=O)[C@H]([C@@H](C)O)NC(=O)[C@H](CCCCN)NC(=O)[C@H](CCC(N)=O)NC(=O)[C@H](CO)NC(=O)[C@H](Cc4ccc(O)cc4)NC(=O)[C@H](Cc4ccc(O)cc4)NC(=O)[C@H](Cc4ccccc4)NC(=O)[C@H](C)NC(=O)[C@H](CO)NC(=O)[C@H](Cc4ccccc4)NC(=O)[C@H](Cc4ccccc4)NC(=O)CNC(=O)[C@H](CC(N)=O)NC3=O)C(=O)N[C@@H](Cc3c[nH]cn3)C(=O)N[C@@H](CO)C(=O)N[C@@H](Cc3ccccc3)C(=O)N[C@@H]([C@@H](C)O)C(=O)N[C@@H](Cc3ccc(O)cc3)C(=O)NCC(=O)NCC(=O)N2)NC(=O)[C@H](CCCCN)NC(=O)[C@H](CCC(=O)O)NC1=O [U-Da2a] here?
Answer: The Ki was 2 to 5 nM.

Question: And the “inhibition of 3H-AVP binding to V1aR” value (V1aR)?
Answer: The value was “did not inhibit”.

Question: And the “inhibition of 3H-AVP binding to V1bR” value (V1bR)?
Answer: The value was “did not inhibit”.

Question: And the “agonist and antagonist activity on 157 GPCRs” value (157 GPCRs)?
Answer: Its value is “detected only on V2R”.

Question: What about the Kb (hV2-Rluc receptor) of the same molecule?
Answer: The Kb was 100 nM.

Question: What about the “dose sufficient to observe the maximal effect” value (CD1^pcy/pcy mice [2]; i.p.) of the same molecule?
Answer: Its value is 0.1 µmol/kg.

Question: And the urine osmolarity (CD1^pcy/pcy mice [2]; [5])?
Answer: Its urine osmolarity is “strong decrease in osmolarity”.

Question: What about the urine volume (CD1^pcy/pcy mice [2]; [5]) of the same molecule?
Answer: Its urine volume is “strong increase in urine volume”.

Question: And the “diuretic effect at increasing doses” value (CD1^pcy/pcy mice [2]; i.p., 1, 0.1 and 0.01 μmol/kg)?
Answer: Its value is “dose-dependent diuretic effect”.

Question: What about the “urine osmolarity at increasing doses” value (CD1^pcy/pcy mice [2]; i.p., 1, 0.1 and 0.01 μmol/kg) of the same molecule?
Answer: The value was “decrease in urine osmolarity”.

Question: What about the “toxic effect after long-term daily injections” value (CD1^pcy/pcy mice [3]) of the same molecule?
Answer: Its value is “No toxic effect was detectable”.

Question: What about the kidney weight (CD1^pcy/pcy mice [4]) of the same molecule?
Answer: The kidney weight was “reduces kidney weight”.

Question: And the number of cysts (CD1^pcy/pcy mice [4]; histology)?
Answer: The number of cysts was “significantly reduces the number of cysts”.

Question: What about the Kb (V2R) of the same molecule?
Answer: Its Kb is 126 nM.
